The target of one data set is T1, Human CRF1 receptor (Homo sapiens, UniProt P34998).
T1 construct: host or cells: CHO-K1 (membrane preparation)
T1 sequence (P34998 24-415): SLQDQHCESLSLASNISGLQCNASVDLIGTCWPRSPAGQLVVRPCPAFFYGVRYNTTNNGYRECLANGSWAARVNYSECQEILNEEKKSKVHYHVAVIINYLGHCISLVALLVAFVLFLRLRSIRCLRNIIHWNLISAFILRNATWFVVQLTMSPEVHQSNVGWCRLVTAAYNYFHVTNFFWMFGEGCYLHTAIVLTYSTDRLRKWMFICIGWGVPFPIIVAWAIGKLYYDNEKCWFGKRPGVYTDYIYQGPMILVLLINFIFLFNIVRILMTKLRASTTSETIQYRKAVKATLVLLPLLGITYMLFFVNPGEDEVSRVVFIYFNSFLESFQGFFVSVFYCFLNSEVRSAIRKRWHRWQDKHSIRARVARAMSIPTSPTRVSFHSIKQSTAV
In words: CRF1 receptor binding, scintillation proximity assay (SPA). The note with it: displacement of [125I]-Sauvagine, CHO-K1 cell membranes. As for the experimental part: The purpose of this example was to test the in vitro binding of the compounds of the invention to receptor subtypes CRF1 and CRF2. The in vitro binding of the compounds was determined in a scintillation proximity assay (SPA) as described below. The native, human Ucn1 and Ucn2 peptides are included as references. Scintillation Proximity Assay: […] Both cell lines were cultured at 37° C. in a humidified atmosphere with 5% CO2. […] Membranes were prepared by the following protocol: cultured cells were washed twice with cold Dulbecco’s phosphate buffered saline and detached using TrypLE™ (ThermoFisher) and transferred to tubes and centrifuged for 5 minutes at 1000 g at +4° C. Pellets were resuspended in ice cold homogenization buffer (20 mM Hepes pH 7.1, 5 mM MgCl2, 1 mg/ml Bacitracin with 2 complete EDTA-free protease inhibitor cocktail tablets/50 ml (Roche)) and then homogenized for 30 seconds using a Ultra-Turrax T25 tissue homogenizer (IKA) at medium speed. The homogenate was centrifuged at 35,000 g for 15 minutes at +4° C. using an ultracentrifuge, and the supernatant was discarded, and fresh homogenization buffer was added. Homogenization of the pellet was repeated a total of three times. The final pellet was resuspended in a few millilitres of homogenization buffer and protein concentration was determined using the Bradford method. The membrane preparation was transferred to cryotubes, and the aliquots were stored at -80° C. Each membrane preparation was subsequently titrated to give an appropriate window in the assay. Test procedure: […] Plates were sealed and incubated at 25° C. for 2 hours in a plate shaker set at 400 rpm and thereafter centrifuged at 1500 rpm for 10 minutes. SPA plates were let to stand at room temperature for about 16 hours prior to reading on microplate scintillation counter. Displacement of radioligand was measured as reduction in luminescence, and IC50 values were calculated by nonlinear regression analysis of four parameter sigmoidal dose-response curves.
In general terms: In a scintillation proximity assay essentially only radioactivity close to the scintillant gives light.

A short description of data set [1]: Pharmacokinetic study in minipigs after intravenous administration. In kind it is in vivo. To be noted: female, Göttingen, minipig, plasma, i.v., 2 nmol/kg, harmonic mean, read-out: Terminal half-life (converted). An excerpt:
The purpose of this investigation was to determine the in vivo half-life of the compounds of the invention after i.v. administration to minipigs using a pharmacokinetic (PK) study in Göttingen Minipigs assessing terminal half-life. The expression ‘terminal half-life’ as used herein, and means the time period required to reduce the plasma concentration by 50%, measured after the initial distribution phase.
Animals and housing: Female Göttingen Minipigs, weighing approximately 15-25 kg, were obtained from Ellegaard Minipigs, Dalmose Denmark. The minipigs were housed individually in the Animal Unit at BioAdvice A/S, ∅lstykke Denmark (later Minerva Imaging A/S) and were fed restrictedly twice daily with Altromin 9033 (Chr. Petersen A/S, Ringsted, Denmark). […]
Administration of peptides and dosing solutions: There were no food restrictions during the study and the animals had ad libitum access to water during the whole study period. […] The plasma samples were analysed as described below.
Quantitative Assay for Plasma Samples: The test compound was assayed in plasma by turbulent flow chromatography coupled to liquid chromatography mass spectrometric (LCMS) detection. The selectivity of the method allowed various test compounds to be quantitated in one sample, e.g. cassette dosing. […]

The structures appear in SMILES notation. Numbered stars: 1 amine (or outer) side, 2 acyl side, 3 side chain; on linkers, the order of the positions; unused ones are H or OH. Side chains are listed from the residue outwards. Peptide text beside a SMILES is read from it. * marks the point of attachment. C20 diacid = O=C(O)CCCCCCCCCCCCCCCCCCC(=O)*; γGlu = O=C(O)[C@H](CCC(=O)[*:2])N[*:1]; AEEA = NCCOCCOCC(=O)O

`CC[C@H](C)[C@H](NC(=O)[C@H](CCC(=O)O)NC(=O)[C@H](C)NC(=O)[C@H](CC(N)=O)NC(=O)[C@@H](NC(=O)[C@@H](NC(=O)[C@H](C)NC(=O)[C@H](CCC(N)=O)NC(=O)[C@H](CCC(=O)O)NC(=O)[C@H](CCCNC(=N)N)NC(=O)[C@H](C)NC(=O)[C@H](C)NC(=O)[C@H](CCCNC(=N)N)NC(=O)[C@H](C)NC(=O)[C@H](CCCNC(=N)N)NC(=O)[C@H](C)NC(=O)[C@H](CCC(N)=O)NC(=O)[C@H](CCC(=O)O)NC(=O)[C@H](CC(C)C)NC(=O)[C@H](CC(C)C)NC(=O)[C@@H](NC(=O)[C@H](CCC(N)=O)NC(=O)[C@H](CC(C)C)NC(=O)[C@H](CC(C)C)NC(=O)CNC(=O)[C@@H](NC(=O)[C@@H]1CCCN1C(=O)[C@@H](NC(=O)[C@H](CC(=O)O)NC(=O)[C@H](CC(C)C)NC(=O)[C@H](CO)NC(=O)[C@H](CC(C)C)NC(=O)[C@@H](NC(=O)[C@@H](NC(=O)[C@@H](N)CCCCNC(=O)COCCOCCNC(=O)COCCOCCNC(=O)CC[C@H](NC(=O)CC[C@H](NC(=O)CC[C@H](NC(=O)CCCCCCCCCCCCCCCCCCC(=O)O)C(=O)O)C(=O)O)C(=O)O)[C@@H](C)CC)C(C)C)C(C)C)[C@@H](C)CC)[C@@H](C)CC)[C@@H](C)O)[C@@H](C)O)C(=O)N[C@@H](CC(C)C)C(=O)N[C@@H](C)C(=O)N[C@@H](CCC(=O)O)C(=O)N[C@H](C(N)=O)C(C)C` [Compound 3] (H-K([AEEA-AEEA-γGlu-γGlu-γGlu-C20 diacid])IVLSLDVPIGLLQILLEQARARAAREQATTNAEILAEV-NH2) returned an IC50 on Human CRF1 receptor above 1000 nM. Besides, in data set [1], the half-life was 96 h.

The compound `CC[C@H](C)[C@H](NC(=O)[C@H](CCC(=O)O)NC(=O)[C@H](C)NC(=O)[C@H](CC(N)=O)NC(=O)[C@@H](NC(=O)[C@@H](NC(=O)[C@H](C)NC(=O)[C@H](CCC(N)=O)NC(=O)[C@H](CCC(=O)O)NC(=O)[C@H](CCCNC(=N)N)NC(=O)[C@H](C)NC(=O)[C@H](C)NC(=O)[C@H](CCCNC(=N)N)NC(=O)[C@H](C)NC(=O)[C@H](CCCNC(=N)N)NC(=O)[C@H](C)NC(=O)[C@H](CCC(N)=O)NC(=O)[C@H](CCC(=O)O)NC(=O)[C@H](CC(C)C)NC(=O)[C@H](CC(C)C)NC(=O)[C@@H](NC(=O)[C@H](CCC(N)=O)NC(=O)[C@H](CC(C)C)NC(=O)[C@H](CC(C)C)NC(=O)CNC(=O)[C@@H](NC(=O)[C@@H]1CCCN1C(=O)[C@@H](NC(=O)[C@H](CC(=O)O)NC(=O)[C@H](CC(C)C)NC(=O)[C@H](CO)NC(=O)[C@H](CC(C)C)NC(=O)[C@@H](NC(=O)[C@@H](NC(=O)[C@@H](N)CCCCNC(=O)COCCOCCNC(=O)COCCOCCNC(=O)CC[C@H](NC(=O)CC[C@H](NC(=O)CC[C@H](NC(=O)CCCCCCCCCCCCCCCCCCC(=O)O)C(=O)O)C(=O)O)C(=O)O)[C@@H](C)CC)C(C)C)C(C)C)[C@@H](C)CC)[C@@H](C)CC)[C@@H](C)O)[C@@H](C)O)C(=O)N[C@@H](CC(C)C)C(=O)N[C@@H](CCC(=O)O)C(=O)N[C@@H](CCCNC(=N)N)C(=O)N[C@H](C(N)=O)C(C)C` [Compound 4] (H-K([AEEA-AEEA-γGlu-γGlu-γGlu-C20 diacid])IVLSLDVPIGLLQILLEQARARAAREQATTNAEILERV-NH2) came in with an IC50 at Human CRF1 receptor above 1000 nM. Besides, the half-life in data set [1] is 103 h.

For orientation: IC50 means the concentration at which inhibition is half-maximal. Lower therefore signals higher potency. What is called half-life is the time in which the quantity being followed falls by half.

Values taken from patent US20230233650A1, “NOVEL FATTY ACID MODIFIED UROCORTIN 2 DERIVATIVES AND THE USES THEREOF” (Novo Nordisk A/S, priority 2021, published 2023).
